Literature values, collected in patent US20250283018A1, “TOILET RIM BLOCKS WITH SCENT CHANGE” (SYMRISE AG, priority 2021, published 2025).
Like-named read-outs stand apart in the source and are kept apart here.

Key:
[1] = not given; remark: listed apart in the source
[2] = Table 3, components of POWER PLATIN

Molecule	Bp. [° C.] (Table 1, components of MARINA)	Bp. [° C.] [2]	Bp. [° C.] (list of selected fragrances)	Bp. [° C.] (Table 2, components of PEACH)	also measured
CO[C@]1(C)CC[C@@]23C[C@@H]1C(C)(C)[C@@H]2CC[C@H]3C [CEDRAMBER]	270 °C	270 °C			
C=CCOC(=O)COC1CCCCC1 [CYCLOGALBANAT]	256 °C	256 °C	256 °C		
Cc1ccc2c(c1)OCC(=O)CO2 [CALONE]	289 °C	289 °C			logP ([1]; Table 1, components of MARINA): 2.43; logP [1, 2]: 2.43
C=CCCC(=O)C(=C)C1CCCCC1 [PHARAONE 10% DPG]		0 °C			
CCCC1(C)OC2CC34CC(C(C)(C)C3CCC4C)C2(C)O1 (centres unmarked)			336 °C		logP ([1]; list of selected fragrances): 5.94
CCCCCCCCCCC=O [ALDEHYD C11 UNDECANAL]	223 °C				logP ([1]; Table 1, components of MARINA): 4.25
CO[C@]1(C)CC[C@@]23C[C@@H]1C(C)(C)[C@@H]2CC[C@H]3C [CEDROL METHYL ETHER]			270 °C		
CC(C=O)Cc1ccc(C(C)C)cc1 (centres unmarked)		262 °C	262 °C		logP [1, 2]: 3.91; logP ([1]; list of selected fragrances): 3.61
CC(C)C1CC=C(CCC=O)CC1 (centres unmarked) [3-[4-ISOPROPYLCYCLOHEXEN-1-YL]PROPANAL]			258 °C		logP ([1]; list of selected fragrances): 4.8
C=CCOC(=O)COc1ccccc1 [ALLYLPHENOXYACETAT]			266 °C	266 °C	
Cc1ccc2c(c1)OCC(=O)CO2 [METHYLBENZODIOXEPINON]			289 °C		logP ([1]; list of selected fragrances): 1.8
COC(=O)c1ccccc1N [[…]]	256 °C	256 °C	256 °C		logP ([1]; list of selected fragrances): 2.12
O=C1CCCCCCCCCCCCCCC1 [8-CYCLOHEXADECANONE, 8-cyclohexadecanone]			323 °C	323 °C	logP ([1]; Table 2, components of PEACH): 5.82; logP ([1]; list of selected fragrances): 5.97
CCC/C=C/CO [HEXENOL TRANS-2]				159 °C	
CCOC(=O)CC(O)(CC(=O)OCC)C(=O)OCC				294 °C	
CC(=O)O[C@@H]1C[C@H]2CC[C@]1(C)C2(C)C (racemic) [ISOBORNYLACETAT]	224 °C				logP ([1]; Table 1, components of MARINA): 3.86
CCc1ccc(CC(C)(C)C=O)cc1 [FLORALOZONE]		276.6 °C			logP [1, 2]: 3.94
CC1CCC(C(C)(C)S)C(=O)C1 (centres unmarked) [THIOMENTHANON-8,3]				271 °C	logP ([1]; Table 2, components of PEACH): 2.78
O=C1CCCCCCCCCCCC(=O)OCCO1 [ETHYLENBRASSYLAT]	382 °C				logP ([1]; Table 1, components of MARINA): 4.71
C=CC(C)CCCC(C)(C)O (centres unmarked) [DIHYDROMYRCENOL]	194 °C	194 °C			logP ([1]; Table 1, components of MARINA): 3.47; logP [1, 2]: 3.47
CC12CCC(C1)C(C)(C)C2O (centres unmarked) [FENCHOL]	212 °C				
CC/C=C\CCOC(=O)OC [LEAFOVERT ®]				189 °C	
C=C1CC/C=C(/C)CC[C@@H]2[C@@H]1CC2(C)C [CARYOPHYLLEN NAT. REKT.]		251 °C			logP [1, 2]: 6.3

Molecule	Bp. [° C.] (Table 1, components of MARINA)	Bp. [° C.] [2]	Bp. [° C.] (list of selected fragrances)	Bp. [° C.] (Table 2, components of PEACH)	also measured
CCCCCCOC(=O)c1ccccc1O [HEXYLSALICYLAT, hexyl salicylate]	327 °C		327 °C		logP ([1]; Table 1, components of MARINA): 5.06; logP ([1]; list of selected fragrances): 4.98
CARYOPHYLLENACETAT	306 °C		306 °C	306 °C	logP ([1]; Table 1, components of MARINA): 5.75; logP ([1]; Table 2, components of PEACH): 5.75; logP ([1]; list of selected fragrances): 5.52
CCCCCC(C)=O [HEPTANON-2]				150 °C	logP ([1]; Table 2, components of PEACH): 1.73
CC1CC(C)(c2ccccc2)OC(C)O1 (centres unmarked) [FLOROPAL]	273 °C				logP ([1]; Table 1, components of MARINA): 3.11
CC1=CCC(=C(C)C)CC1 [TERPINOLEN DEXTRO]		197 °C			logP [1, 2]: 4.88
MENTHON L/ISOMENTHON D	204 °C				logP ([1]; Table 1, components of MARINA): 2.87
HERBYLPROPIONAT	276.15 °C		276.15 °C		logP ([1]; Table 1, components of MARINA): 3.68; logP ([1]; list of selected fragrances): 2.89
C/C=C/C(=O)C1C(C)C=CCC1(C)C (centres unmarked) [DELTA DEMASCONE]		251 °C	251 °C	251 °C	logP ([1]; Table 2, components of PEACH): 4.16; logP [1, 2]: 4.16
C[C@@H]1CC[C@H]2C(C)(C)[C@H]3C[C@@]12CC[C@@]3(C)O [CEDROL CRIST. NAT.]	283 °C	283 °C			
ISOBUTYLMENTHONE	211 °C				logP ([1]; Table 1, components of MARINA): 2.94
CCCCCCC1OC(=O)CC1C (centres unmarked) [3-METHYL-GAMMA-DECALACTONE]			293 °C		
CC(C)=CCCC(C)CCOC(=O)C(C)C (centres unmarked) [CITRONELLYLISOBUTYRAT]			267 °C	267 °C	logP ([1]; Table 2, components of PEACH): 5.47; logP ([1]; list of selected fragrances): 5.04
C=CC(C)(O)CCC=C(C)C (centres unmarked) [LINALOOL]		198 °C			logP [1, 2]: 3.38
CCCCCCCC=O [ALDEHYD C 8]	171 °C			171 °C	logP ([1]; Table 1, components of MARINA): 2.78; logP ([1]; Table 2, components of PEACH): 2.78
CC(O)COC(C)CO (centres unmarked) [DIPROPYLENGLYCOL]	231 °C	231 °C		231 °C	
CCC(C)(O)CCCC(C)C (centres unmarked) [TETRAHYDROLINALOOL]	197 °C	197 °C			
CCCCCCC1CCC(=O)O1 (centres unmarked) [GAMA DECALACTONE]			266 °C	266 °C	logP ([1]; Table 2, components of PEACH): 2.57; logP ([1]; list of selected fragrances): 2.36
C/C=C/c1ccc(OC)cc1 [ANETHOL SUPRA 21.5 CELSIUS]		234 °C			
CCCCC1CCC(=O)O1 (centres unmarked) [OCTALACTON GAMMA]				234 °C	
C=CCOC(=O)COCCC(C)C [ALLYLAMYLGLYCOLAT]		226 °C			
CC(=O)OC1CC(C)CCC1C(C)C (centres unmarked) [MENTHYL ACETATE]			255 °C		
CC1(C)CCC[C@]2(C)[C@H]3CCO[C@]3(C)CC[C@@H]12 [AMBROXIDE]	283 °C				
CCOC(=O)C(C)CC (centres unmarked) [ETHYLMETHYLBUTYRAT-2]	135 °C			135 °C	

Molecule	Bp. [° C.] (Table 1, components of MARINA)	Bp. [° C.] [2]	Bp. [° C.] (list of selected fragrances)	Bp. [° C.] (Table 2, components of PEACH)	also measured
C=CCc1ccc(O)c(OC)c1 [EUGENOL]		253.2 °C	253.2 °C		
CCC(CC)COC(=O)CC1C=CCC1 (centres unmarked) [(2-CYCLOPENTEN-1-ACETIC ACID-2-ETHYLBUTYL ESTER]			252 °C		
C=CCOC(=O)CCC1CCCCC1 [ALLYLCYCLOHEXYLPROPIONAT]			250 °C		
CC12CCC(CC1)C(C)(C)O2 [EUCALYPTOL NAT.]	176 °C				
CC/C=C\CCO [HEXENOL CIS-3]	157 °C			157 °C	
CCCCCC1C(=O)CCC1CC(=O)OC (centres unmarked) [HEDION]		296 °C		296 °C	
CC1=CC(C)C(C=O)CC1 (centres unmarked) [VERTOCITRAL]	187 °C				
CCCCCCOC(C)=O [HEXYLACETAT]	169 °C			169 °C	
C=CC(C)(O)CCC=C(C)CC (mixture of isomers) [ETHYLLINALOOL]	224 °C				
TERPINEOL REIN	219.16 °C			219.16 °C	
CCCCCC(=O)OCC [ETHYLCAPRONAT]				166 °C	
CC(C)=CCCC(C)CCO (centres unmarked) [CITRONELLOL 950]		223 °C			
CC(=O)c1oc2ccccc2c1C [NEROLIONE]				272 °C	
CCCCCC1C(=O)CCC1CC(=O)OC (centres unmarked) [METHYLDIHYDROJASMONATE]			296 °C		
CC(=O)OC(C)c1ccccc1 (centres unmarked) [STYROLYLACETAT]	214 °C			214 °C	
COc1ccc(C=O)cc1 [ANISALDEHYD REIN]		248 °C			
BORNEOL L/ISOBORNEOL 65/35		212 °C			
CC(=O)OC1CCCCC1C(C)(C)C (centres unmarked) [AGRUMEX LC]	227 °C	227 °C		227 °C	
CCCCCC1CCC(=O)O1 (centres unmarked) [ALDEHYD C18 SOG.]				250 °C	
CSC				37 °C	
CC12CCC(CC1=O)C2(C)C (stereo not drawn) [KAMPFER DL]	204 °C				
CC1(C)[C@@H]2CC[C@@]1(C)[C@H](O)C2 (racemic) [ISOBORNEOL]	211 °C				
CCCCCCC1OC(=O)CC1C (centres unmarked) [APRIFLOREN ®]				274 °C	
